Source: ChEMBL document CHEMBL5634082, “Recent advances in the development of inhibitors targeting KRAS-G12C and its related pathways” (Eur J Med Chem, 2023)
One block for each molecule: values may come before it.

How the values were obtained:
[1] = system: GTPase KRas (Homo sapiens), P01116 [G12C]; assay: Inhibition of KRAS G12C mutant (unknown origin) at 10 uM relative to control
NCI-H441 = assay: Antiproliferative activity against human NCI-H441 cells harboring KRAS G12V mutant assessed as reduction in cell viability incubated for 72 hrs by MTT assay; type: functional, cell-based; conditions: NCI-H441, 72 h
GTPase KRas [2] = molecular target: GTPase KRas (Homo sapiens, UniProt P01116, G12C); assay: Inhibition of KRAS G12C mutant (unknown origin)
cells = conditions: Homo sapiens, MKN-1
[3] = Inhibition of ERK phosphorylation in human NCI-H358 cells incubated for 3 hrs; type: cell-based; conditions: NCI-H358, 3 h
[4] = Clearance in iv dosed CD-1 mouse; type: ADME, organism-based; conditions: in vivo
[5] = Volume of distribution at steady state in iv dosed CD-1 mouse; type: ADME, organism-based; conditions: in vivo, read-out: Vdss
[6] = Volume of distribution at steady state in iv dosed Sprague-Dawley rat by LC-MS/MS analysis; type: ADME, organism-based; conditions: in vivo, read-out: Vdss
[7] = Volume of distribution at steady state in iv dosed Beagle dog; type: ADME, organism-based, Canis lupus familiaris; conditions: in vivo, read-out: Vdss
[8] = Oral bioavailability in CD-1 mouse; type: ADME, organism-based; conditions: in vivo
[9] = Oral bioavailability in Sprague-Dawley rat; type: ADME, organism-based; conditions: in vivo
[10] = Oral bioavailability in Beagle dog; type: ADME, organism-based, Canis lupus familiaris; conditions: in vivo
GTPase KRas [11] = molecular target: GTPase KRas (Homo sapiens, UniProt P01116, G12V); assay: Binding affinity to Cys12 residue of GDP bound human KRAS […] mutant expressed in Escherichia coli BL21 Rosetta cells assessed as dissociation constant by HSQC NMR spectral analysis
[12] = molecular target: von Hippel-Lindau disease tumor suppressor/GTPase KRas (Homo sapiens, UniProt P01116+P40337, G12C); assay: Protac activity at VHL/KRAS G12C mutant in human NCI-H2030 cells assessed as degradation of KRAS G12C mutant incubated for 24 hrs by immunoblot assay; type: cell-based
[13] = system: von Hippel-Lindau disease tumor suppressor/GTPase KRas (Homo sapiens), P01116+P40337 [G12C]; assay: Protac activity at VHL/KRAS G12C mutant in human SW1573 cells assessed as induction of protein degradation by measuring maximal efficacy at […] incubated for 72 hrs by Western blot analysis relative to control; type: cell-based; conditions: dose 2.5 µM
[14] = system: von Hippel-Lindau disease tumor suppressor/GTPase KRas (Homo sapiens), P01116+P40337 [G12C]; assay: PROTAC activity at VHL/KRAS G12C mutant in human NCI-H2030 cells assessed as induction of protein degradation by measuring maximal efficacy at […] incubated for 24 hrs by Immunoblotting analysis relative to control; type: cell-based; conditions: dose 2.5 µM
[15] = Inhibition of ERK phosphorylation in human NCI-H358 cells harboring KRAS G12C mutant incubated for 6 hrs by Western blot analysis; type: cell-based; conditions: NCI-H358, 6 h
NCI-H358 [16] = assay: Antitumor activity against human NCI-H358 cells harboring KRAS G12C mutant xenografted in mouse model assessed as tumor growth inhibition at 10 mg/kg, po relative to control; type: functional; parameters: scale not given: the % may be the effect or the level left
NCI-H358 [17] = assay: Antitumor activity against human NCI-H358 cells harboring KRAS G12C mutant xenografted in mouse model assessed as tumor growth inhibition at 30 mg/kg, po relative to control; type: functional; parameters: scale not given: the % may be the effect or the level left
NCI-H358 [18] = assay: Antitumor activity against human NCI-H358 cells harboring KRAS G12C mutant xenografted in mouse model assessed as tumor growth inhibition at 100 mg/kg, po relative to control; type: functional; parameters: scale not given: the % may be the effect or the level left

inhibition [1]: 17%
Structure (SMILES): C=CC(=O)N1CCN(c2nc(OC[C@@H]3CCCN3C)nc3c2cc(-c2cccc4ccccc24)n3C)C[C@@H]1CC#N

Structure (SMILES): N#Cc1c(N)sc2c1CCCC2
IC50 (NCI-H441): 16 µM

inhibition [1]: 91.3%
IC50 (GTPase KRas [2]): 1.54 µM
Structure (SMILES): C=CC(=O)N1CCN(c2nc(OCC34CCCN3CCC4)nc3c2cc(-c2cccc4cccc(C)c24)n3C)C[C@@H]1CC#N

Structure (SMILES): Cc1c([C@@H](C)Nc2nnc(C)c3cnc(N4CCOCC4)cc23)cccc1C(F)(F)F
IC50 (cells): 0.026 µM

Structure (SMILES): C=CC(=O)N1CCN(c2nc(OC[C@@H]3CCCN3C)nc3c2CCN(c2cccc4ccccc24)C3)CC1
IC50 [3]: 4.4 µM

Structure (SMILES): CC1(C)CCCc2sc(N)c(C#N)c21
IC50 (NCI-H441): < 10 µM

Structure (SMILES): Cc1c([C@@H](C)Nc2nnc(C)c3ccc(N4CCNCC4)cc23)cccc1C(F)(F)F
IC50 (cells): 0.074 µM

Structure (SMILES): Cc1c(C#N)cccc1[C@@H](C)Nc1nnc(C)c2cnc(N3CCOCC3)cc12 [MRTX-0902]
clearance [4]: 4.4 mL/min/kg
Vd [5]: 0.28 L/kg
Vd [6]: 0.28 L/kg
Vd [7]: 0.28 L/kg
bioavailability [8]: 38%
bioavailability [9]: 38%
bioavailability [10]: 38%

Kd (GTPase KRas [11]): < 10 µM
Structure (SMILES): C[C@]1(c2nc(-c3ccc(N)cc3)no2)CCCc2sc(N)c(C#N)c21

Structure (SMILES): C=C(F)C(=O)N1CCN(c2nc(OC[C@@H]3CCCN3CCCOCCC(=O)N[C@H](C(=O)N3C[C@H](O)C[C@H]3C(=O)NCc3ccc(-c4scnc4C)cc3)C(C)(C)C)nc3c2CCN(c2cccc4cccc(Cl)c24)C3)C[C@@H]1CC#N
DC50 [12]: 0.59 µM
Emax [13]: 90%
Emax [14]: 75%

Structure (SMILES): C=CC(=O)N1CC2(CC(n3nc(-c4ccc5[nH]ncc5c4)c(-c4c(Cl)c(C)cc5[nH]ncc45)c3C)C2)C1
IC50 [15]: 0.02 µM

Structure (SMILES): C=CC(=O)N1CC2(CC(n3nc(-c4ccc5c(cnn5C)c4)c(-c4c(Cl)c(C)cc5[nH]ncc45)c3C)C2)C1 [OPNURASIB]
IC50 [15]: 0.02 µM

Structure (SMILES): C=C(F)C(=O)N1CCN(c2nc(OC[C@@H]3CCCN3CCCCOCCC(=O)N[C@H](C(=O)N3C[C@H](O)C[C@H]3C(=O)NCc3ccc(-c4scnc4C)cc3)C(C)(C)C)nc3c2CCN(c2cccc4cccc(Cl)c24)C3)C[C@@H]1CC#N
DC50 [12]: 0.88 µM
Emax [13]: 90%

Structure (SMILES): C=CC(=O)N1CCN(c2nc(OC[C@@H]3CCCN3C)nc3c2CCN(c2cccc4ccccc24)C3)C[C@@H]1CC#N
IC50 [3]: 0.01 µM

Structure (SMILES): C=C(F)C(=O)N1CCN(c2nc(OC[C@@H]3CCCN3CCC(=O)NCCOCCC(=O)N[C@H](C(=O)N3C[C@H](O)C[C@H]3C(=O)NCc3ccc(-c4scnc4C)cc3)C(C)(C)C)nc3c2CCN(c2cccc4cccc(Cl)c24)C3)C[C@@H]1CC#N
Emax [14]: 35%

Structure (SMILES): C=C(F)C(=O)N1CCN(c2nc(OC[C@@H]3CCCN3CCC(=O)NCCOCCOCCC(=O)N[C@H](C(=O)N3C[C@H](O)C[C@H]3C(=O)NCc3ccc(-c4scnc4C)cc3)C(C)(C)C)nc3c2CCN(c2cccc4cccc(Cl)c24)C3)C[C@@H]1CC#N
Emax [14]: 30%

Structure (SMILES): C=CC(=O)N1CC2(CC(n3nc(-c4ccccc4)c(-c4c(Cl)c(C)cc5[nH]ncc45)c3C)C2)C1
IC50 [15]: 0.04 µM

Structure (SMILES): C=C(F)C(=O)N1CCN(c2nc(OC[C@@H]3CCCN3CCC(=O)NCCC(=O)N[C@H](C(=O)N3C[C@H](O)C[C@H]3C(=O)NCc3ccc(-c4scnc4C)cc3)C(C)(C)C)nc3c2CCN(c2cccc4cccc(Cl)c24)C3)C[C@@H]1CC#N
DC50 [12]: 6.4 µM
Emax [14]: 85%

Structure (SMILES): C=CC(=O)N1CC2(CC(n3nc(C(C)C)c(-c4c(C)ccc5[nH]ncc45)c3C)C2)C1
IC50 [15]: 3.9 µM

inhibition [1]: 39.8%
Structure (SMILES): C=CC(=O)N1CCN(c2nc(OC[C@@H]3CCCN3C)nc3c2cc(-c2cccc4cccc(C)c24)n3C)C[C@@H]1CC#N

Structure (SMILES): C=C(F)C(=O)N1CCN(c2nc(OC[C@@H]3CCCN3CCOCCOCCC(=O)N[C@H](C(=O)N3C[C@H](O)C[C@H]3C(=O)NCc3ccc(-c4scnc4C)cc3)C(C)(C)C)nc3c2CCN(c2cccc4cccc(Cl)c24)C3)C[C@@H]1CC#N
DC50 [12]: > 10 µM
Emax [13]: 50%

inhibition [1]: 98.6%
IC50 (GTPase KRas [2]): 0.34 µM
Structure (SMILES): C=CC(=O)N1CCN(c2nc(OC[C@@]34CCCN3C[C@H](F)C4)nc3c2cc(-c2cccc4cccc(C)c24)n3C)C[C@@H]1CC#N

Kd (GTPase KRas [11]): < 10 µM
Structure (SMILES): C[C@]1(c2nc(-c3cccc(N)c3)no2)CCCc2sc(N)c(C#N)c21

Structure (SMILES): C=CC(=O)N1CCN(c2nc(OC[C@@H]3CCCN3C)nc3c2CCN(c2cccc4cccc(Cl)c24)C3)C[C@@H]1CC#N
Activity (NCI-H358 [16]): 70%
Activity (NCI-H358 [17]): 89%
Activity (NCI-H358 [18]): 90%
